Patent publication US20190321365A1, “Maintenance Therapy for the Treatment of Cancer” (Aslan Pharmaceuticals Pte. Ltd., priority 2016, published 2019)
Where two headings read alike, the source gives them in different places.

Assays:
[1] = system: gastric tumors co-expressing EGFR and HER2 or HER2 amplified; test: Phase I monotherapy trial in gastric cancer patients, tumor biopsies by immunohistochemistry; assay type: in vivo, human; settings: 23 patients, 500 mg orally twice daily, monotherapy for 28 days; biopsies before and after treatment
Protocol: It has been tested as a monotherapy in phase I clinical trials of gastric cancer patients. 23 patients, who had previously failed on one or more rounds of chemotherapy and, where eligible, trastuzumab, each received 500 mg of ASLAN001 orally twice daily as monotherapy for 28 days. Tumor biopsies taken before and after treatment were analysed using immunohistochemistry.

[2] = system: squamous cell carcinoma of the cervix; test: Example 1: maintenance therapy, patient with squamous cell carcinoma of the cervix; assay type: in vivo, human; settings: 300 mg bi-daily; one patient, progressing after radiation and chemotherapy
Protocol: A patient diagnosed with squamous cell carcinoma of the cervix was initially treated with radiation therapy and concurrent weekly cisplatin. They had recurring disease the following year. They subsequently received a number of lines of chemotherapy, including topotecan/cisplating and ifosfamide. The cancer continued to progress.
They received 300 mg bi-daily of varlitinib for 6.5 years.
The patient received varlitinib maintenance therapy for about 6.5 years before developing transitional cell carcinoma of the bladder. It is likely that this bladder carcinoma was a result receiving pelvic radiation and/or treatment with ifsoamide.

stage IV gastric cancer [3] = test: Example 5: trial ASLAN001-002, maintenance monotherapy, patient with stage IV gastric cancer; assay type: in vivo, human
Protocol: A person (ASLAN001-002 2A102) had the past history of hypertension for more than 5 years. They were diagnosed with stage IV gastric cancer in April 2015.
They joined the clinical trial, ASLAN001-002. The study treatment of cisplatin/5-FUplus continuous 400 mg varlitinib per oral twice a day started on 12 May 2015. After 6 cycles (28 days/cycle) of combined regimen, they continued 400 mg varlitinib monotherapy for another 112 days. […] The total treatment duration of varlitinib maintenance therapy was 243 days. […] The study treatment was discontinued due to disease progression.

stage IV bladder cancer = test: Example 6: trial ASLAN001-002SG, maintenance monotherapy, patient with stage IV bladder cancer; assay type: in vivo, human
Description: A person (ASLAN001-002SG DNT/0012) had the past history of type 2 diabetes mellitus, atrial fibrillation, hypertension, hyperlipidemia, and grade 1 hearing loss. They were diagnosed with stage IV bladder cancer and received radical cystoprostatectomy on 13 Dec. 2013. They also received cisplatin based concurrent radiotherapy on 20 Feb. 2014, and gemcitabine plus cisplatin from 10 Apr. to 8 May 2015.
They joined the clinical trial, ASLAN001-002SG. The study treatment of bi-weekly FOLFOX plus continuous 300 mg varlitinib per oral twice a day started on 24 Aug. 2015. After 9 cycles (14 days/cycle) of combined regimen, they continued varlitinib monotherapy. The total treatment duration of varlitinib maintenance therapy was 140 days. […] The study treatment was discontinued due to disease progression.

[4] = system: stage IV cholangiocarcinoma; test: Example 4: trial ASLAN001-002, maintenance monotherapy, patient with stage IV cholangiocarcinoma; assay type: in vivo, human
Protocol: A person (ASLAN001-002 2A101) had the past history of type 2 diabetes mellitus and hypertension for more than 10 years. They were diagnosed with stage IV cholangiocarcinoma in November 2014.
They joined the clinical trial, ASLAN001-002. The study treatment of cisplatin/5-FU plus continuous 400 mg varlitinib per oral twice a day started on 27 Jan. 2015.
After 6 cycles (28 days/cycle) of combined regimen, […] continued 400 mg varlitinib monotherapy for another 99 days. […] The total treatment duration of varlitinib maintenance therapy was 287 days.
The study treatment was discontinued due to disease progression.

[5] = system: intrahepatic cholangiocarcinoma; test: Example 3: trial ASLAN001-002SG, maintenance monotherapy, patient with intrahepatic cholangiocarcinoma; assay type: in vivo, human
Description: A person ([…]/0013) had the past history of meningioma post left craniotomy for tumor excision in 2007. They were diagnosed with intrahepatic cholangiocarcinoma in July 2013, and received left hemihepatectomy followed by adjuvant chemotherapy (gemcitabine plus cisplatin) from 14 Aug. 2013 to 8 Jan. 2014. Disease relapse was found in […]. Thus, they received systemic treatment with gemcitabine plus cisplatin from 13th May to 1 Jul. 2015. They joined the clinical trial, […]. The study treatment of bi-weekly FOLFOX plus continuous 400 mg varlitinib per oral twice a day started on 4 Aug. 2015. […] 2015, varlitinib was interrupted and reduced to 300 mg twice a day in combination with FOLFOX. After 9 cycles (14 days/cycle) of combined regimen, they continue varlitinib monotherapy.

stage IV gastric cancer [6] = test: Example 7: trial ASLAN001-002, maintenance monotherapy, patient with stage IV gastric cancer; assay type: in vivo, human
Protocol: A person (ASLAN001-002 2B302) had the underlying disease of gastro-esophageal reflux disease. They were diagnosed with stage IV gastric cancer in Jul. 2016.
They joined the clinical trial, ASLAN001-002. The study treatment of cisplatin/capecitabine plus continuous 300 mg varlitinib per oral twice a day started on 6 Sep. 2016. After 6 cycles (21 days/cycle) of combined regimen, they continue varlitinib monotherapy. The total treatment duration of varlitinib maintenance therapy was 134 days. […] The study treatment was discontinued due to disease progression.

[7] = General tolerability in patients; assay type: in vivo, human; settings: in comparison to many anti-cancer treatments
[8] = system: choloangiocarcinoma (CCA); test: Example 2: maintenance monotherapy, patient with cholangiocarcinoma; assay type: in vivo, human
Protocol: A person with choloangiocarcinoma (CCA), namely […] adenocarcinoma had already received surgery, was administered varlitinib at a dose of 400 mg bi-daily in combination with doublet chemotherapy for six 28-day cycles. Varlitinib was then used as maintenance therapy as monotherapy for 10 additional cycles, of 28 days of treatment.

breast cancer = settings: cited from earlier work
[9] = women who didn't take hormone replacement therapy

C[C@@H]1COC(Nc2ccc3ncnc(Nc4ccc(OCc5nccs5)c(Cl)c4)c3c2)=N1 [varlitinib, (R)-N4-[3-Chloro-4-(thiazol-2-ylmethoxy)-phenyl]-N6-(4-methyl-4,5,-dihydro-oxazol-2-yl)-quinazoline-4,6-diamine]
signs of clinical activity in tumor biopsies [1]: downregulation of signalling pathways responsible for cell proliferation, and a reduction in cell survival and cell proliferation
duration of maintenance therapy before developing transitional cell carcinoma of the bladder [2]: about 6.5 years
adverse event leading to dose tapering (stage IV gastric cancer [3]; after 112 days of 400 mg monotherapy): creatinine increase
best tumor response (stage IV gastric cancer [3]; human, in vivo): partial response
total treatment duration of maintenance therapy (stage IV gastric cancer [3]; person, 400 mg monotherapy, then 300 mg twice a day, discontinued due to disease progression): 243 days
best tumor response (stage IV bladder cancer; human, in vivo): stable disease
total treatment duration of maintenance therapy (stage IV bladder cancer; person, monotherapy after 9 cycles of FOLFOX plus 300 mg twice a day, discontinued due to disease progression): 140 days
adverse event leading to dose tapering ([4]; after 99 days of 400 mg monotherapy): creatinine increase
best tumor response ([4]; non-target disease): non-complete response/non-progressive disease
total treatment duration of maintenance therapy ([4]; person, 400 mg monotherapy, then 300 mg twice a day 1 week on and 1 week off, discontinued due to disease progression): 287 days
adverse event leading to interruption and dose reduction ([5]; 400 mg per oral twice a day in combination with bi-weekly FOLFOX): grade 3 hyperbilirubinemia
tumor status ([5]; after 504 days of maintenance treatment): partial response
duration of maintenance treatment to date ([5]; person, monotherapy after 9 cycles with FOLFOX, 300 mg twice a day, ongoing): 504 days
best tumor response (stage IV gastric cancer [6]; human, in vivo): stable disease
total treatment duration of maintenance therapy (stage IV gastric cancer [6]; person, monotherapy after 6 cycles of cisplatin/capecitabine plus 300 mg twice a day, discontinued due to disease progression): 134 days
tolerability [7]: very well tolerated
adverse event leading to dose reduction ([8]; monotherapy 400 mg bi-daily, at cycle 10 day 15): increase in G3 creatinine levels
target lesion during maintenance therapy ([8]; period of 10 cycles of maintenance therapy): no target lesion was observed
disease status during maintenance therapy ([8]; person, stage VI adenocarcinoma, monotherapy 400 then 300 mg bi-daily, 10 cycles of 28 days, after six cycles with doublet chemotherapy): stable disease

CC/C(=C(\c1ccccc1)c1ccc(OCCN(C)C)cc1)c1ccccc1 [tamoxifen]
reduction of the risk of breast cancer (breast cancer; women at high risk, long-term study): 29%
effect on the risk of estrogen-receptor-negative breast cancer (breast cancer; women at high risk): didn't reduce the risk
reduction of the risk of estrogen-receptor-positive breast cancer (breast cancer; women at high risk): 35%
reduction of the risk of breast cancer (breast cancer; [9]): 38%
reduction of the risk of estrogen-receptor-positive disease (breast cancer; [9]): 45%
